Laboratory results published in patent US11542233B2, “Compounds, compositions and methods of use” (Aquinnah Pharmaceuticals, Inc., priority 2016, dated 2023).

System: TDP-43 aggregation in PC12 cells stably expressing GFP-tagged mutant TDP-43 (TDP-43^Q33IK::eGFP)
Assay: In vitro efficacy assay: inhibition of TDP-43 inclusions, concentration-response, fluorescence microscopy
Format: cell-based
Conditions: Rattus norvegicus, PC-12, PC12 cells, 1 hour pre-treatment, 15 μM sodium arsenite for 23 hours, 10-point dose response curve
Method: Exemplary compounds of the invention were evaluated for efficacy in inhibiting TDP-43 inclusions using a concentration-response assay. Briefly, PC12 cells stably expressing a GFP-tagged mutant form of TDP-43 (TDP-43^Q33IK::eGFP) were pre-treated for 1 hour with exemplary compounds and stressed with 15 μM sodium arsenite for 23 hours to induce TDP-43 aggregation. The inhibitory effect on TDP-43 aggregation was measured using fluorescence microscopy. The ratio of cells with TDP-43 aggregates was calculated based on the total number of cells with detectable GFP expression. In the table, “A” indicates an IC50 of less than 100 nM, “B” indicates an IC50 range from 100 nM to 500 nM; “C” indicates an IC50 range from 500 nM to 2 μM; and “D” indicates an IC50 greater than 2 μM.

IC50 [µM] | SMILES
< 0.1 | CCN(C(=O)c1nc2cc(C#N)ccc2[nH]1)[C@H]1CCC[C@@H](NCc2cc(C3CC3)on2)C1 [Compound 537]
> 2 | CCN(C(=O)c1nc2ccccc2[nH]1)[C@@]1(C)CCC[C@@H](NCc2ccccc2)C1 [Compound 555, N-((1S,3R)-3-(benzylamino)-1-methylcyclohexyl)-N-ethyl-1H-benzo[d]imidazole-2-carboxamide]
< 0.1 | CCN(C(=O)c1cc2cc(C#N)ccc2[nH]1)[C@H]1CCC[C@@H](NCc2cc3ccccc3o2)C1 [Compound 533]
< 0.1 | C#CCOc1ccc(CN[C@@H]2CCC[C@H](N(CC)C(=O)c3nc4cc(N=[N+]=[N-])ccc4[nH]3)C2)cc1 [Compound 557, 5-azido-N-ethyl-N-((1S,3R)-3-((4-(prop-2-yn-1-yloxy)benzyl)amino)cyclohexyl)-1H-benzo[d]imidazole-2-carboxamide]
< 0.1 | CCN(C(=O)c1cc2ccccc2[nH]1)[C@H]1CCC[C@@H](NCc2cc3cc(F)ccc3o2)C1 [Compound 433]
< 0.1 | O=C(c1cc2ccccc2[nH]1)N(CC(F)(F)F)[C@H]1CCC[C@@H](NCc2cccnc2)C1 [Compound 175]
< 0.1 | COc1ccc(C(C)(C)N[C@@H]2CCC[C@H](N(CC(F)(F)F)C(=O)c3cc4ncccc4[nH]3)C2)cc1 [Compound 424, N-((1S,3R)-3-((2-(4-methoxyphenyl)propan-2-yl)amino)cyclohexyl)-N-(2,2,2-trifluoroethyl)-1H-pyrrolo[3,2-b]pyridine-2-carboxamide]

The next lines start with the molecule.

SMILES | IC50 [µM]
CCN(C(=O)c1cc2ccccc2[nH]1)[C@H]1CCC[C@@H](N[C@H](c2ccccc2)C(F)(F)F)C1 [Compound 414] | 0.5 to 2
CCN(C(=O)c1cc2ccccc2[nH]1)[C@H]1CCC[C@@H](N(C)Cc2ccccc2)C1 [Compound 105, N-((1S,3R)-3-(benzyl(methyl)amino)cyclohexyl)-N-ethyl-1H-indole-2-carboxamide] | 0.1 to 0.5
CCN(C(=O)c1cc2ccccc2[nH]1)[C@@H]1CCC[C@@H](N[C@@H]2CCc3ccccc32)C1 [Compound 114] | > 2
CCN(C(=O)c1cc2ccccc2[nH]1)[C@H]1COC[C@H](NCc2ccccc2)C1 [Compound 301, N-((3R,5R)-5-(benzylamino)tetrahydro-2H-pyran-3-yl)-N-ethyl-1H-indole-2-carboxamide] | > 2
CCN(C(=O)c1nc2cc(C#N)ccc2[nH]1)[C@H]1CCC[C@@H](NCc2oc3ccccc3c2C)C1 [Compound 518] | < 0.1
CCN(C(=O)c1cc2ccccc2[nH]1)[C@H]1CCC[C@@H](NC2(c3ccccc3)COC2)C1 [Compound 318, N-ethyl-N-((1S,3R)-3-((3-phenyloxetan-3-yl)amino)cyclohexyl)-1H-indole-2-carboxamide] | 0.5 to 2
CCN(C(=O)c1nc2ccccc2[nH]1)[C@H]1CCC[C@@H](NCc2nc3ccccc3s2)C1 [Compound 488] | < 0.1
CCN(C(=O)c1cc2ccccc2[nH]1)[C@H]1CCC[C@@H](NCc2cnoc2)C1 [Compound 453] | 0.1 to 0.5
C#Cc1ccc(C(=O)c2cccc(CN[C@@H]3CCC[C@H](N(CC)C(=O)c4cc5ccccc5[nH]4)C3)c2)cc1 [Compound 312, N-ethyl-N-((1S,3R)-3-((3-(4-ethynylbenzoyl)benzyl)-amino)cyclohexyl)-1H-indole-2-carboxamide] | 0.5 to 2
CCN(C(=O)c1cc2ccccc2[nH]1)[C@H]1CCC[C@@H](NCc2ccc(N=[N+]=[N-])cc2)C1 [Compound 317] | < 0.1
CCN(C(=O)c1cc2cc(C#N)ccc2[nH]1)[C@H]1CCC[C@@H](NCc2oc3ccccc3c2C)C1 [Compound 535] | < 0.1
CCN(C(=O)c1nc2cc(C#N)ccc2[nH]1)[C@H]1CCC[C@@H](NCc2cc3ccccc3o2)C1 [Compound 517] | < 0.1
CCN(C(=O)c1cc2ncccc2[nH]1)[C@H]1CCC[C@@H](NCc2cc(C)on2)C1 [Compound 445] | 0.1 to 0.5
CCN(C(=O)c1cc2ccccc2[nH]1)[C@H]1CCC[C@@H](N[C@H](c2cncnc2)C(F)(F)F)C1 (single isomer, unassigned) [Compound 412] | 0.1 to 0.5
